Patent US6914045B2, “Glycopeptide antibiotics” (Wyeth Holdings Corporation, priority 2001, dated 2005)
Values after ≈ are worked out from the molar mass of the structure shown.

Tests used:
Assay in all cases: in vitro antibacterial evaluation, MIC by broth dilution
Format in all cases: cell-based
[1] = tested on: Enterococcus sp.; details: broth dilution, 18 hours at 35° C.
Method: (§1) Methods for in vitro Antibacterial Evaluation (Table 1)
(§2) The minimum inhibitory concentration (MIC), the lowest concentration of the antibiotic which inhibits growth of the test organism, is determined by the broth dilution method using Muller-Hinton II […] (Baltimore Biological Laboratories) following the recommendations of the National Committee for Clinical Laboratory Standards [Methods for dilution antimicrobial susceptibility tests for bacteria that grow aerobically, approved standard M7-A2, National Committee for Clinical Laboratory Standards, Villanova, Pa.].
(§3) An inoculum level of 5×10^5 CFU/mL, and a range of antibiotic concentrations (64-0.06 μg/mL) is used. […] The test organisms include a spectrum of Gram-positive bacteria comprised of Staphylococcus sp., Streptococcus sp. and Enterococcus sp. These organisms include recent clinical isolates that are resistant to methicillin, penicillin and/or vancomycin.

[2] = tested on: Staphylococcus sp.; details: broth dilution, 18 hours at 35° C.
Method: as §1, §2, §3

[3] = tested on: Streptococcus sp.; details: broth dilution, 18 hours at 35° C.
Method: as §1, §2, §3

[4] = tested on: Escherichia coli; details: 18 hours at 35° C.
Method in brief: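 Broth dilution MIC per NCCLS M7-A2 in Mueller-Hinton II medium, inoculum 5×10^5 CFU/mL, antibiotic range 64-0.06 μg/mL. MIC taken as lowest concentration inhibiting growth.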

MIC Enterococcus avium (GC 4558) ([1]; Enterococcus avium (GC 4558)): 128 µg/mL (≈ 83.7 µM)
MIC Enterococcus faecalis (ATCC 29212) ([1]; Enterococcus faecalis (ATCC 29212)): >128 µg/mL
MIC Enterococcus faecalis (GC 4552) ([1]; Enterococcus faecalis (GC 4552)): >128 µg/mL
MIC Enterococcus faecalis (GC 4553) ([1]; Enterococcus faecalis (GC 4553)): >128 µg/mL
MIC Enterococcus faecalis (GC 4554) ([1]; Enterococcus faecalis (GC 4554)): >128 µg/mL
MIC Enterococcus faecalis (GC 6189) ([1]; Enterococcus faecalis (GC 6189)): >128 µg/mL
MIC Enterococcus faecium (GC 2243) ([1]; Enterococcus faecium (GC 2243)): >128 µg/mL
MIC Enterococcus faecium (GC 4556) ([1]; Enterococcus faecium (GC 4556)): >128 µg/mL
MIC Enterococcus faecium (GC 4557) ([1]; Enterococcus faecium (GC 4557)): 128 µg/mL (≈ 83.7 µM)
MIC Enterococcus avium (GC 4558) [1]: 128 µg/mL (≈ 83.7 µM)
MIC Enterococcus faecalis (ATCC 29212) [1]: >128 µg/mL
MIC Enterococcus faecalis (GC 2242) [1]: >128 µg/mL
MIC Enterococcus faecalis (GC 2691) [1]: >128 µg/mL
MIC Enterococcus faecalis (GC 3059) [1]: >128 µg/mL
MIC Enterococcus faecalis (GC 4552) [1]: >128 µg/mL
MIC Enterococcus faecalis (GC 4553) [1]: >128 µg/mL
MIC Enterococcus faecalis (GC 4554) [1]: >128 µg/mL
MIC Enterococcus faecalis (GC 6189) [1]: >128 µg/mL
MIC Enterococcus faecium (GC 2243) [1]: >128 µg/mL
MIC Enterococcus faecium (GC 4556) [1]: >128 µg/mL
MIC Enterococcus faecium (GC 4557) [1]: 128 µg/mL (≈ 83.7 µM)
MIC Enterococcus faecalis (GC 2242) ([1]; strain GC 2242): >128 µg/mL
MIC Enterococcus faecalis (GC 2691) ([1]; strain GC 2691): >128 µg/mL
MIC Enterococcus faecalis (GC 3059) ([1]; strain GC 3059): >128 µg/mL
MIC Coagulase Negative Staphylococcus (GC 4547) [2]: >128 µg/mL
MIC Coagulase Negative Staphylococcus (GC 4548) [2]: >128 µg/mL
MIC Coagulase Negative Staphylococcus (GC 4549) [2]: >128 µg/mL
MIC Coagulase Negative Staphylococcus (GC 4551) [2]: >128 µg/mL
MIC Staphylococcus aureus-SMITH (GC 4543) [2]: >128 µg/mL
MIC Staphylococcus aureus (ATCC 29213) ([2]; strain ATCC 29213): >128 µg/mL
MIC Staphylococcus aureus (GC 1131) ([2]; strain GC 1131): >128 µg/mL
MIC Staphylococcus aureus (GC 3051) ([2]; strain GC 3051): >128 µg/mL
MIC Staphylococcus aureus (GC 3053) ([2]; strain GC 3053): >128 µg/mL
MIC Staphylococcus aureus (GC 4541) ([2]; strain GC 4541): >128 µg/mL
MIC Staphylococcus aureus (GC 4542) ([2]; strain GC 4542): >128 µg/mL
MIC Staphylococcus aureus-SMITH (GC 4543) ([2]; strain GC 4543): >128 µg/mL
MIC Staphylococcus aureus (GC 4544) ([2]; strain GC 4544): >128 µg/mL
MIC Staphylococcus aureus (GC 4545) ([2]; strain GC 4545): >128 µg/mL
MIC Coagulase Negative Staphylococcus (GC 4547) ([2]; strain GC 4547): >128 µg/mL
MIC Coagulase Negative Staphylococcus (GC 4548) ([2]; strain GC 4548): >128 µg/mL
MIC Coagulase Negative Staphylococcus (GC 4549) ([2]; strain GC 4549): >128 µg/mL
MIC Coagulase Negative Staphylococcus (GC 4551) ([2]; strain GC 4551): >128 µg/mL
MIC Streptococcus agalactiae (GC 4564) [3]: >128 µg/mL
MIC Streptococcus pneumoniae (ATCC 6301) [3]: >128 µg/mL
MIC Streptococcus pneumoniae (GC 1894) [3]: 128 µg/mL (≈ 83.7 µM)
MIC Streptococcus pneumoniae (GC 4565) [3]: >128 µg/mL
MIC Streptococcus pyogenes (GC 4563) [3]: >128 µg/mL
MIC Streptococcus pneumoniae (ATCC 6301) ([3]; strain ATCC 6301): >128 µg/mL
MIC Streptococcus pneumoniae (GC 1894) ([3]; strain GC 1894): 128 µg/mL (≈ 83.7 µM)
MIC Streptococcus pyogenes (GC 4563) ([3]; strain GC 4563): >128 µg/mL
MIC Streptococcus agalactiae (GC 4564) ([3]; strain GC 4564): >128 µg/mL
MIC Streptococcus pneumoniae (GC 4565) ([3]; strain GC 4565): >128 µg/mL
MIC Escherichia coli (ATCC 25922) [4]: >128 µg/mL
MIC Escherichia coli (GC 4559) [4]: >128 µg/mL
MIC Escherichia coli (GC 4560) [4]: >128 µg/mL
SMILES: CC(c1ccccc1)C1NC(=O)CNC(=O)C(CO)NC(=O)C(C(O)C2CN(c3nc4ccccc4o3)C(=N)N2C2OC(CO)C(O)C(O)C2O)NC(=O)C(C(O)C2CNC(=Nc3nc4ccccc4o3)N2)NC(=O)C(Cc2ccc(OC3OC(CO)C(OC4OC(CO)C(O)C(O)C4O)C(O)C3O)cc2)NC1=O (stereo not drawn) [Example 93, Cyclo[glycyl-β-methylphenylalanyl-O-(4-O-hexopyranosylhexopyranosyl)tyrosyl-3-[2-(1,3-benzoxazol-2-ylimino)imidazolidin-4-yl]seryl-3-[1-(1,3-benzoxaxol-2-yl)-3-hexopyranosyl-2-iminoimidazolidin-4-yl]serylseryl]]
MIC Staphylococcus haemolyticus (GC 4546) [2]: >128 µg/mL
MIC Staphylococcus haemolyticus (GC 4546) ([2]; strain GC 4546): >128 µg/mL
